12 compounds from US20140135310A1, “SULPHONAMIDE DERIVATIVES OF ALICYCLIC AMINES FOR THE TREATMENT OF CENTRAL NERVOUS SYSTEM DISEASES” (Adamed Sp. z o.o., priority 2011, published 2014) can be followed below.

Experiment [1] addresses dopaminergic receptors D2 (Homo sapiens, UniProt P14416). In words: Radioligand binding assay, dopaminergic D2 receptors. The following applies: binding assay, test compound 1×10^−6 M. An excerpt: (§1) The specific ligand binding to the receptors is defined as the difference between the total binding and the non-specific binding determined in the presence of the excess of unlabelled ligand.
(§2) The results are expressed as a percent of control specific binding ((measured specific binding/control specific binding)×100) and as a percent inhibition of control specific binding (100−((measured specific binding/control specific binding)×100)) obtained in the presence of the test compounds. The specific ligand binding to the receptors is defined as the difference between the total binding and the nonspecific binding determined in the presence of an excess of unlabelled ligand. Scintillation counting was the method of detection of ligand binding. The IC50 values (concentration causing a half-maximal inhibition of control specific binding) were determined by non-linear regression analysis of the competition curves generated with mean replicate values using Hill equation curve fitting (Y=D+[(A−D)/(1+(C/C50)nH)], where Y=specific binding, D=minimum specific binding, A=maximum specific binding, C=compound concentration, C50=IC50, and nH=slope factor). This analysis was performed using a software developed at Cerep (Hill software) and validated by comparison with data generated by the commercial software SigmaPlot® 4.0 for Windows® (© 1997 by SPSS Inc.). The inhibition constants (Ki) were calculated using the Cheng Prusoff equation (Ki=IC50/(1+(L/KD)), where L=concentration of radioligand in the assay, and KD=affinity of the radioligand for the receptor). A scatchard plot was used to determine the Kd.
(§3) Experimental conditions for tests are given in Table 1, the results of tests for representative compounds are given in Tables 2a and 2b (receptors D2 and D3) and in Table 3 (receptors D4).

Experiment [2] addresses dopaminergic receptors D3 (Homo sapiens, UniProt P35462). As to the kind of experiment: Radioligand binding assay, dopaminergic D3 receptors. The settings on record: test compound 1×10^−6 M.
Description: as §1, §2, §3

Experiment [3] has as its target T1, 5-HT1A receptor (rat hippocampus) (Rattus norvegicus, UniProt P19327).
T1 construct: hippocampus; from tissue; host or cells: rat hippocampus
T1 sequence (P19327 1-422): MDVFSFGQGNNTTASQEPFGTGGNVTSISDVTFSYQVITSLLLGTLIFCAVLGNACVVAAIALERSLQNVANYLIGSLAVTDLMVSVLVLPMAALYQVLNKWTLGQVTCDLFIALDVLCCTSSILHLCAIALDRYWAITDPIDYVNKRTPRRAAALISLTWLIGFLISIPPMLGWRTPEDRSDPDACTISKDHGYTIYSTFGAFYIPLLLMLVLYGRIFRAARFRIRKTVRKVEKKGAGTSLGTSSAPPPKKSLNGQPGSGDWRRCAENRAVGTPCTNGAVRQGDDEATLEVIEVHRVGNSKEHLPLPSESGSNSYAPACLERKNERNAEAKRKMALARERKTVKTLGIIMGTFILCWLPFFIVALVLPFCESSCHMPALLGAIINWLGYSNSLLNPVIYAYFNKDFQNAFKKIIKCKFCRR
In words: Radioligand binding assay, serotoninergic 5-HT1A receptors.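 Further: test compound at 1 µM.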 The settings on record: binding assay result in %, Table 5a.
Description: as §1, §2
(§4) Experimental conditions for tests are given in Table 4, and results of tests for representative compounds of the invention are given in Table 5a and 5b (receptors 5-HT1A, 5-HT2A, 5-HT6 and 5-HT7) and in Table 6 (receptors 5-HT2C).

Another experiment concerns the target T2, 5-HT2A receptor (Homo sapiens, UniProt P28223).
T2 construct: purchased PerkinElmer
In words: Radioligand binding assay, serotoninergic 5-HT2A receptors. The following applies: binding assay result in %, Table 5a.
Description: as §1, §2
5-HT2A: Bryan L. Roth. Assay Protocol Book. University of North Carolina At Chapel Hill. National Institute of Mental Health. Psychoactive Drug Screening Program. Available on-line at 31 Aug. 2008: http://pdsp.med.unc.edu/UNC-CH%20Protocol%20Book.pdf

A further experiment has as its target T3, 5-HT6 receptor (Homo sapiens, UniProt P50406).
T3 construct: purchased PerkinElmer
In words: Radioligand binding assay, serotoninergic 5-HT6 receptors.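 Further: test compound at 1 µM.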 The following applies: binding assay result in %, Table 5a.
Description: as §1, §2, §4
5-HT6: Bryan L. Roth. Assay Protocol Book. University of North Carolina At Chapel Hill. National Institute of Mental Health. Psychoactive Drug Screening Program. Available on-line at 31 Aug. 2008: http://pdsp.med.unc.edu/UNC-CH %20Protocol%20Book.pdf

The next experiment has as its target T4, 5-HT7 receptor (Homo sapiens, UniProt P34969).
T4 construct: purchased PerkinElmer
As to the kind of experiment: Radioligand binding assay, serotoninergic 5-HT7 receptors.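 Further: test compound at 1 µM.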 The settings on record: binding assay result in %, Table 5a.
Description: as §1, §2, §4
5-HT7: Bryan L. Roth. Assay Protocol Book. University of North Carolina At Chapel Hill. National Institute of Mental Health. Psychoactive Drug Screening Program. Available on-line at 31 Aug. 2008: http://pdsp.med.unc.edu/UNC-CH %20Protocol%20Book.pdf

Experiment [4] concerns the target T5, serotonin transporter (SERT) (Homo sapiens, UniProt P31645).
T5 construct: expressed in transfected cells; host or cells: CHO cells
In words: Radioligand binding assay, serotonin transporter (SERT). The settings on record: binding assay, test compound 1×10^−6 M.
Description: as §1, §2
Experimental conditions for tests are given in Table 12, and results of tests for representative compounds are given in Tables 13a and 13b.

Chain of dopaminergic receptors D3 (P35462 whole entry): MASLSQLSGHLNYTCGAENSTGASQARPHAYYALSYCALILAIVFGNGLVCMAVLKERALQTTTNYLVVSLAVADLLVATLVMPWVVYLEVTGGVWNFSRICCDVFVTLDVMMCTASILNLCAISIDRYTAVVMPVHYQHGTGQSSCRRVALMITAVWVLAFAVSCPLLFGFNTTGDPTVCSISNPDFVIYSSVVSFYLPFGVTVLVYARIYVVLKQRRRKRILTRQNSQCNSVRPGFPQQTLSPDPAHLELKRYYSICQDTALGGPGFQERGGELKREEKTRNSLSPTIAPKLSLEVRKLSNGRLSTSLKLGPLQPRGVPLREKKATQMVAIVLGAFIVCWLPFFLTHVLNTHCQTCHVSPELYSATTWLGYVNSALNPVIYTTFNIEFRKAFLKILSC
T4 sequence (P34969 whole entry): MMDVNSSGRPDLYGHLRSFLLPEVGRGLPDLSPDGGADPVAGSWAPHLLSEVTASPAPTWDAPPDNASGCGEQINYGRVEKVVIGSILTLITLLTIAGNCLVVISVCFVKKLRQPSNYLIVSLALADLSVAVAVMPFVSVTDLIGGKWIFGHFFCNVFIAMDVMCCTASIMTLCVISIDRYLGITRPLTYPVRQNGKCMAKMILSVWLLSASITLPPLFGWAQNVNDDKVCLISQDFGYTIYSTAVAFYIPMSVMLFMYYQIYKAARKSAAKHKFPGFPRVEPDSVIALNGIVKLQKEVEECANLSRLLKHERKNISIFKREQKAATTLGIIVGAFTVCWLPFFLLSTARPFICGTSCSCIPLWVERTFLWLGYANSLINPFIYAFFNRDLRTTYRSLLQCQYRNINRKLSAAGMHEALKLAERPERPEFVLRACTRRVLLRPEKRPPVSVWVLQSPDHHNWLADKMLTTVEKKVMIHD
Chain of dopaminergic receptors D2 (P14416 whole entry): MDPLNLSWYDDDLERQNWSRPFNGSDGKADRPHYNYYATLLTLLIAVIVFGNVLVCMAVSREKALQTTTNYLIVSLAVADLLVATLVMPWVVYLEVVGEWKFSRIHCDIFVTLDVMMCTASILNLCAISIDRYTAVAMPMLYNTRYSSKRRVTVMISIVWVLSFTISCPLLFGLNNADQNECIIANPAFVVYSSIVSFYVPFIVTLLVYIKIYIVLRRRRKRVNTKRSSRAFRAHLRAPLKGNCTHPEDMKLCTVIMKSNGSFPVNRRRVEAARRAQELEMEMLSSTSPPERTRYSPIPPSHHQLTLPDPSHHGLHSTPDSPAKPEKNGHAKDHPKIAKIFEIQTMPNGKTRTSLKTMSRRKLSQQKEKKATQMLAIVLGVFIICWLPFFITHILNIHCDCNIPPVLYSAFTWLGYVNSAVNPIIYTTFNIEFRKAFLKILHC
T2 sequence (P28223 whole entry): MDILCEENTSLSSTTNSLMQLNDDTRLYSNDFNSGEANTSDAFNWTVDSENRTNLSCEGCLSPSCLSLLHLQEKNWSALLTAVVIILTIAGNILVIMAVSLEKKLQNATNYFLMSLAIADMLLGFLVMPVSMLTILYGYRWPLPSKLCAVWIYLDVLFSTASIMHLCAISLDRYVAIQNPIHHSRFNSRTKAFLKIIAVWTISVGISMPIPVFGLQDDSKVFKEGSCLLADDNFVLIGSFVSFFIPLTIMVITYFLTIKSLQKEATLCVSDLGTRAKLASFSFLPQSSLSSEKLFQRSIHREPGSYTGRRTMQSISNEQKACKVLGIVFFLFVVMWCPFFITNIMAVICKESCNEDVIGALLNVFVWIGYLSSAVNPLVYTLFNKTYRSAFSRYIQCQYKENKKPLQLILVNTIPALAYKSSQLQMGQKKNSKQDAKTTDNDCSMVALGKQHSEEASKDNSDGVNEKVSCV
T5 sequence (P31645 whole entry): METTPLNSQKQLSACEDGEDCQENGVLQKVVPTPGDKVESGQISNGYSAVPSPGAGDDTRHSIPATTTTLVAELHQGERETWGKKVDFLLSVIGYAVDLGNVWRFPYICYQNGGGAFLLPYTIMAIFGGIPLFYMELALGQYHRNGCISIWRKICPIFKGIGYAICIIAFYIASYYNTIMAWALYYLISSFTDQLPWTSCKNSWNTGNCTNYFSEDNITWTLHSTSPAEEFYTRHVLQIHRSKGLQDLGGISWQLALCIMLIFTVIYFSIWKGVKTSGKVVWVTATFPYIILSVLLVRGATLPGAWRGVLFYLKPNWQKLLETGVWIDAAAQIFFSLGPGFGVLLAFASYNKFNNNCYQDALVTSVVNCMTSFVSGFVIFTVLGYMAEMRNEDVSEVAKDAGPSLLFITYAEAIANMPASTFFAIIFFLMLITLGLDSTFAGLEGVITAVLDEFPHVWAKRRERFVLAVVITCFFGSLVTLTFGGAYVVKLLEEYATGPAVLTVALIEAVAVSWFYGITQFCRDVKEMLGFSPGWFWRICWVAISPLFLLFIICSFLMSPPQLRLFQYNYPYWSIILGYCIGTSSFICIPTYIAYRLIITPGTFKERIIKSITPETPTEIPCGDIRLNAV
T3 sequence (P50406 whole entry): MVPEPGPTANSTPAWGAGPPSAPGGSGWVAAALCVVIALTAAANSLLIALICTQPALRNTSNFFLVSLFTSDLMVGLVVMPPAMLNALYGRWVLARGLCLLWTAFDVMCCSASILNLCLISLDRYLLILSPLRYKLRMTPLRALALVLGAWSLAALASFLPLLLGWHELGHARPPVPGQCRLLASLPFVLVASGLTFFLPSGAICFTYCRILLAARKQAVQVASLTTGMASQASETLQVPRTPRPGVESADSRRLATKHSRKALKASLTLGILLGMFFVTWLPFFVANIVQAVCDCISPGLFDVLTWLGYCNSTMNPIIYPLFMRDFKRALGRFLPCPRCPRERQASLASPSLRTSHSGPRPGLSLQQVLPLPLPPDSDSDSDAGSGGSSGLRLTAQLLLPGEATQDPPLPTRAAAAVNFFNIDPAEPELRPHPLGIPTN

In the case of `O=S(=O)(NCC1CCN(CCCc2noc3cc(F)ccc23)C1)c1cccc(O)c1` (stereo not drawn) [Compound 254, N-[[1-[3-(6-Fluoro-1,2-benzoxazol-3-yl)propyl]pyrrolidin-3-yl]methyl]-3-hydroxy-benzenesulphonamide], the inhibition (commonly the change of the read-out against control, counted positive when it falls) at 1 µM in experiment [1] was found to be 75%; in experiment [2], 34%; in experiment [3] it was 49%; on 5-HT2A receptor, 98%; on 5-HT6 receptor it was 78%; on 5-HT7 receptor it was 102%. For the same compound, the inhibition at 1 µM in experiment [4] was determined as 10%.

Regarding `O=S(=O)(NCC1CCN(CCCc2noc3cc(F)ccc23)C1)c1ccc2c(c1)CCO2` (stereo not drawn) [Compound 256, N-[[1-[3-(6-Fluoro-1,2-benzoxazol-3-yl)propyl]pyrrolidin-3-yl]methyl]-2,3-dihydrobenzofuran-5-sulphonamide], the inhibition at 1 µM was found to be 37% in experiment [1]; 25% in experiment [2]; 29% in experiment [3]; 87% at 5-HT2A receptor; 74% at 5-HT6 receptor; 92% on 5-HT7 receptor. Moreover, in experiment [4], the inhibition at 1 µM was 40%.

With `O=S(=O)(NCC1CCN(CCCc2noc3cc(F)ccc23)C1)c1cc2ccccc2o1` (stereo not drawn) [Compound 257, N-[[1-[3-(6-Fluoro-1,2-benzoxazol-3-yl)propyl]pyrrolidin-3-yl]methyl]-benzofuran-2-sulphonamide], the inhibition at 1 µM in experiment [1] amounted to 92%; in experiment [2], 62%; in experiment [3], 87%; at 5-HT2A receptor, 100%; at 5-HT6 receptor it was 94%; on 5-HT7 receptor, 88%. For the same compound, the inhibition at 1 µM in experiment [4] came out at 20%.

Turning to `Cn1ccc2c(S(=O)(=O)NCC3CCN(CCCc4noc5cc(F)ccc45)C3)cccc21` (stereo not drawn) [Compound 259, N-[[1-[3-(6-Fluoro-1,2-benzoxazol-3-yl)propyl]pyrrolidin-3-yl]methyl]-1-methyl-indole-4-sulphonamide], the inhibition at 1 µM is 84% in experiment [1]; 61% in experiment [2]; 42% in experiment [3]; 100% at 5-HT2A receptor; 92% at 5-HT6 receptor; 91% on 5-HT7 receptor. The inhibition at 1 µM in experiment [4] was -5%.

As for `O=S(=O)(NCC1CCN(CCCc2noc3cc(F)ccc23)C1)c1csc2ccccc12` (stereo not drawn) [Compound 261, N-[[1-[3-(6-Fluoro-1,2-benzoxazol-3-yl)propyl]pyrrolidin-3-yl]methyl]-benzothiophene-3-sulphonamide], the inhibition at 1 µM in experiment [1] came out at 88%; in experiment [2], 65%; in experiment [3], 78%; on 5-HT2A receptor, 101%; at 5-HT6 receptor, 97%; on 5-HT7 receptor, 104%. In addition, in experiment [4], the inhibition at 1 µM came out at 3%.

For the compound `Cc1cc(S(=O)(=O)NCC2CCN(CCCc3noc4cc(F)ccc34)C2)c(C)s1` (stereo not drawn) [Compound 262, N-[[1-[3-(6-Fluoro-1,2-benzoxazol-3-yl)propyl]pyrrolidin-3-yl]methyl]-2,5-dimethyl-thiophene-3-sulphonamide], the inhibition at 1 µM in experiment [1] stood at 26%; in experiment [2], 44%; in experiment [3], 25%; at 5-HT2A receptor, 85%; at 5-HT6 receptor, 69%; on 5-HT7 receptor, 92%. For the same compound, the inhibition at 1 µM in experiment [4] was determined as 26%.

For the compound `O=S(=O)(NCC1CCN(CCCc2noc3cc(F)ccc23)C1)c1ccc(F)c(Cl)c1` (stereo not drawn) [Compound 263, 3-Chloro-4-fluoro-N-[[1-[3-(6-fluoro-1,2-benzoxazol-3-yl)propyl]pyrrolidin-3-yl]methyl]benzenesulphonamide], the inhibition at 1 µM in experiment [1] was 59%; in experiment [2], 71%; in experiment [3], 19%; at 5-HT2A receptor it was 97%; on 5-HT6 receptor, 85%; on 5-HT7 receptor, 92%. For the same compound, the inhibition at 1 µM in experiment [4] was 11%.

For the compound `O=S(=O)(NC1CCN(CCCc2noc3cc(F)ccc23)CC1)c1cc2ccccc2s1` [Compound 324, N-[1-[3-(6-Fluoro-1,2-benzoxazol-3-yl)propyl]-4-piperidyl]benzothiophene-2-sulphonamide], the inhibition at 1 µM in experiment [1] came to 77%; in experiment [2] it was 41%; in experiment [3] it was 49%; on 5-HT2A receptor it was 99%; on 5-HT6 receptor it was 78%; at 5-HT7 receptor, 101%. For the same compound, in experiment [4], the inhibition at 1 µM was found to be 18%.

On to `CC(C)(C)c1ccc(S(=O)(=O)NC2CCN(CCCc3noc4cc(F)ccc34)CC2)cc1` [Compound 328, 4-tert-Butyl-N-[1-[3-(6-fluoro-1,2-benzoxazol-3-yl)propyl]-4-piperidyl]benzenesulphonamide], for which the inhibition at 1 µM in experiment [1] was 64%; in experiment [2] it was 40%; in experiment [3] it was 49%; at 5-HT2A receptor it was 96%; at 5-HT6 receptor, 94%; at 5-HT7 receptor, 90%. The inhibition at 1 µM in experiment [4] came to 25%.

In the case of `Cn1ccc2c(S(=O)(=O)NC3CCN(CCCc4noc5cc(F)ccc45)CC3)cccc21` [Compound 329, N-[1-[3-(6-Fluoro-1,2-benzoxazol-3-yl)propyl]-4-piperidyl]-1-methyl-indole-4-sulphonamide], the inhibition at 1 µM in experiment [1] is 84%; in experiment [2], 68%; in experiment [3] it was 49%; on 5-HT2A receptor, 94%; at 5-HT6 receptor, 62%; at 5-HT7 receptor, 97%. Moreover, the inhibition at 1 µM in experiment [4] is 43%.

Regarding `O=S(=O)(NC1CCN(CCCc2noc3cc(F)ccc23)CC1)c1csc2ccccc12` [Compound 330, N-[1-[3-(6-Fluoro-1,2-benzoxazol-3-yl)propyl]-4-piperidyl]benzothiophene-3-sulphonamide], the inhibition at 1 µM in experiment [1] was determined as 77%; in experiment [2] it was 64%; in experiment [3], 82%; at 5-HT2A receptor it was 102%; on 5-HT6 receptor, 79%; on 5-HT7 receptor, 101%. Besides, the inhibition at 1 µM in experiment [4] was 22%.

For “N-[[1-[3-(6-Fluoro-1,2-benzoxazol-3-yl)propyl]pyrrolidin-3-yl]methyl]-1-methyl-indole-5-sulphonamide [Compound 258]”, the “D2 [%]” value in experiment [1] was found to be 92%. Moreover, the “D3 [%]” value in experiment [2] stood at 43%. For the same compound, in experiment [3], the “5-HT1A [%]” value is on record as 64%. In addition, at 5-HT2A receptor, the “5-HT2A [%]” value stood at 98%. For the same compound, the “5-HT6 [%]” value at 5-HT6 receptor was 89%. For the same compound, on 5-HT7 receptor, the “5-HT7 [%]” value was found to be 78%. Also, the “SERT [%]” value in experiment [4] is listed as 25%.
